# Read-outs that look alike come from different tables or passages of the source.
# Legend:
# [1] = pH 9.2, with NAC
# [2] = Ex vivo everted gut sac model; assay type: in vitro ADME; details: rat duodenum, within 60 min, CBS 200 μM, pH 7.4
# Caco-2 cell monolayer = details: CBS 150 μM, without or with 10NAC 1.5 mM
# [3] = cited from earlier work
# [4] = SD rats
# SARS-CoV-2 [5] = assay type: in vivo, golden Syrian hamster
# [6] = cited from earlier work; remark: listed apart in the source
# [7] = Blood bismuth concentration after oral administration in mice; assay type: in vivo; details: Balb/c mice, oral CBS 150 mg kg^-1 (NAC 180 or 610 mg kg^-1)
# SARS-CoV-2 [8] = assay type: cell-based; details: CBS 1000 μM, NAC 1000 μM, CBS 1000 μM + 3NAC 3000 μM, non-treated 64.5%
# SARS-CoV-2 [9] = details: read-out: EC50, SARS-CoV-2; cited from earlier work
# ACE2 = ACE2 (Homo sapiens, UniProt Q9BYF1); assay: ACE2 activity inhibition assay; assay type: biochemical
# Sequence of ACE2 (Q9BYF1 18-805): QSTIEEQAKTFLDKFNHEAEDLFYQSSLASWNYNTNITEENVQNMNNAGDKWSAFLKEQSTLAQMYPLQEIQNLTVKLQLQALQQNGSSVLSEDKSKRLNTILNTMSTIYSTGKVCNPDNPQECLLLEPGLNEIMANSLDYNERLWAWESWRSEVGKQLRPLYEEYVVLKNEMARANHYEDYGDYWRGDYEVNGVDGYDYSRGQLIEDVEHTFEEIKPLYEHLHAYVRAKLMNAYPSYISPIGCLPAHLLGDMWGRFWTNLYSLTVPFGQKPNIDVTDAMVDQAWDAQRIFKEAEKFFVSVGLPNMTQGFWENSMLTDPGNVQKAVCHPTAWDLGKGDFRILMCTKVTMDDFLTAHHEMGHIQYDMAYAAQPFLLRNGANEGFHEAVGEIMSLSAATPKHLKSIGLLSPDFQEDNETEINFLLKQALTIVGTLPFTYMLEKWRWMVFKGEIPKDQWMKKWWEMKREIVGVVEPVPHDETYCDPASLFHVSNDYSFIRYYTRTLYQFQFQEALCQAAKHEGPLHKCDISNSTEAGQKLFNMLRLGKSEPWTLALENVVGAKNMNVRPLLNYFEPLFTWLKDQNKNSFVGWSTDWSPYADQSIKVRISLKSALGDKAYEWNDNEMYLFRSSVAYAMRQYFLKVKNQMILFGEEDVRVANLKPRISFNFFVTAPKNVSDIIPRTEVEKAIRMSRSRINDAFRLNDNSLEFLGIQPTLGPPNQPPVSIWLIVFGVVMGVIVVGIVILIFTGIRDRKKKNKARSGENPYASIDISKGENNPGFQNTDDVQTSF
# SARS-CoV-2 [10] = assay: Viral load reduction assay, SARS-CoV-2 in Vero E6 cells; assay type: cell-based; details: Vero E6, up to 2000 μM
# SARS-CoV-2 M^pro = SARS-CoV-2 M^pro (Severe acute respiratory syndrome coronavirus 2, UniProt P0DTD1); assay type: biochemical; details: at comparable concentrations
# SARS-CoV-2 PL^pro = SARS-CoV-2 PL^pro (Severe acute respiratory syndrome coronavirus 2, UniProt P0DTD1); assay type: biochemical; details: at comparable concentrations
# [11] = single oral dose CBS 150 mg/kg, NAC 610 mg/kg, n = 5
molecule,measurement,setting,value
colloidal bismuth subcitrate [CBS],hydrolysis of CBS at pH 9.2 in the presence of NAC,[1],prevent hydrolysis
same,"cumulative bismuth permeated, everted sac model",[2],14.68(±4.12) ng cm^−2
same,cellular accumulation of bismuth in Caco-2 monolayer,Caco-2 cell monolayer,0.33(±0.02) %
same,apparent permeability coefficient (Papp) through Caco-2 monolayer,Caco-2 cell monolayer; pH 7.4,1.73(±0.02) × 10^−7 cm s^−1
same,"cumulative permeated bismuth, PAMPA","iso-pH 1.2, without NAC",16.95 ng cm^−2
same,absorption of bismuth in the rat small intestine,[3],lower than 1%
same,bismuth accumulation in the kidney,[4]; 24 hour after oral dose,6839.76(±1652.30) ng per tissue
same,bismuth accumulation in the lung,[4]; 24 hour after oral dose,552.15(±104.97) ng per tissue
same,first peak value of blood bismuth level,"[4]; oral CBS 150 mg kg^-1, at around 0.5 h",277.69 µg/L
same,AUC0→12 h,[4]; [11],1316(±474.00) h μg L^−1
same,Cmax (blood bismuth),[4]; [11],447.06(±132.39) μg L^−1
same,SARS-CoV-2-NP antigen signal in alveolar tissue of hamster lungs,"SARS-CoV-2 [5]; hamster, in vivo, po",68.00(±6.08) NP^+ cells per view
same,adverse clinical signs and symptoms of infected hamsters,"SARS-CoV-2 [5]; oral treatment, end of experimental period",mildly mitigated
same,solubility in water,[6]; pH 3,about 1 mg mL^−1
same,solubility in water,[6]; pH 7,> 70 mg/mL
same,blood bismuth concentration,[7]; 0.5 hour,225.75(±86.05) μg L^−1
same,blood bismuth concentration,[7]; 1 hour,87.27(±21.46) μg L^−1
same,viral NP antigen in infected Vero E6 cells,SARS-CoV-2 [8],37.25%
same,EC50,SARS-CoV-2 [9],4.6 µM
same,inhibition of ACE2 activity,ACE2,barely displayed anti-ACE2 potency
"CC(=O)N[C@@H](CS)C(=O)O [NAC, N-acetyl-L-cysteine]","anti-SARS-CoV-2 activity of NAC alone, virus copies in supernatant",SARS-CoV-2 [10],negligible anti-SARS-CoV-2 activity
same,inhibitory activity on SARS-CoV-2 M^pro,SARS-CoV-2 M^pro,negligible inhibitory activity
same,SARS-CoV-2-NP antigen signal in alveolar tissue of hamster lungs,"SARS-CoV-2 [5]; hamster, in vivo, po",85.67(±11.59) NP^+ cells per view
same,lung pathology,"SARS-CoV-2 [5]; hamster, in vivo, po",partially relieve lung pathology
same,lung viral load versus vehicle group,"SARS-CoV-2 [5]; oral, CBS 300 mg kg^-1 or NAC 370 mg kg^-1, day -2 to 1, […]",no statistically significant difference
same,viral NP antigen in infected Vero E6 cells,SARS-CoV-2 [8],59.75%
same,inhibitory activity on SARS-CoV-2 PL^pro,SARS-CoV-2 PL^pro,negligible inhibitory activity
"CNC(=C[N+](=O)[O-])NCCSCc1ccc(CN(C)C)o1.O=C([O-])CC(O)(CC(=O)[O-])C(=O)[O-].[Bi+3] [RBC, ranitidine bismuth citrate]","cumulative permeated bismuth, PAMPA","iso-pH 1.2, in the presence of 10 mol eq. NAC",19.77 ng cm^−2
same,"cumulative permeated bismuth, PAMPA","iso-pH 1.2, without NAC",15.24 ng cm^−2
"O=[N+]([O-])[O-].O=[N+]([O-])[O-].O=[N+]([O-])[O-].O=[N+]([O-])[O-].[Bi+3].[Bi+3].[Bi+3].[Bi+3].[Bi+3].[O-2].[OH-].[OH-].[OH-].[OH-].[OH-].[OH-].[OH-].[OH-].[OH-] [BSN, bismuth subnitrate]",absorption of bismuth in the rat small intestine,[3],lower than 1%

# — PMC8864717 (Chemical Science, 2021)
